This test deals with S. aureus, P. aeruginosa, c. albicans, E. coli and/or A. niger. In words: abbreviated preservative efficacy test against USP, EP-A and EP-B criteria. Format: cell-based. To be noted: 20 ppm BAK alone. The procedure: Each of these formulations is tested by performing an abbreviated preservative efficacy test using test organisms S. aureus, P. aeruginosa, c. albicans, E. coli and/or A. niger. The formulations are tested against United States Pharmacopeia Preservative Efficacy Test (USP), European Pharmacopeia Efficacy Test-A (EP-A) and European Pharmacopeia Efficacy Test-B (EP-B) criteria as indicated. Ten (10) ml of each formulation is challenged with approximately 10^5 cfu/ml of test organism. At appropriate time intervals, the amount of bacterial and fungal survivors are assayed using Dey Engley broth (DE) as the neutralizer media. DE, along with filtration, is sufficient at neutralizing the antimicrobial agents in the compositions. One (1) ml of each sample is diluted into nine (9) ml of DE. One (1) ml of the 1:10 dilution is filtered through a 0.45 µm filter and washed with 100 ml of a saline/polysorbate 80 solution. After washing the filtrate a second time with 100 ml of saline/polysorbate 80 solution, the filtrate is placed onto a TSA plate for bacteria and SAB for fungi.

Here are results for one substance from patent publication US20110251285A1, “COMBINATIONS OF PRESERVATIVES FOR OPHTHALMIC COMPOSITIONS” (ALLERGAN, INC., priority 2010, published 2011).

For benzalkonium chloride [BAK], the “Ph Eur-B & A criteria” value is on record as “failed”.
